Details: Fluid (supercritical or subcritical phases), Brillouin light scattering

CCCCCCC [heptane]
Details | speed of sound [m/s]
513.4 K, 8000 kPa | 451.65
513.58 K, 6000 kPa | 394.15
513.59 K, 3000 kPa | 293.56
513.65 K, 4000 kPa | 333.84
513.92 K, 2500 kPa | 266.66
515.23 K, 5000 kPa | 363.89
515.3 K, 10000 kPa | 481.16
521.41 K, 5000 kPa | 337.01
523.19 K, 10000 kPa | 459.31
523.83 K, 3000 kPa | 242.56
524.25 K, 4000 kPa | 291.43
524.62 K, 6000 kPa | 357.73
524.62 K, 8000 kPa | 417.84
525.23 K, 2500 kPa | 196.31
528.41 K, 3000 kPa | 218.56
528.9 K, 4000 kPa | 269.01
528.93 K, 2500 kPa | 167.01
528.95 K, 8000 kPa | 403.55
529.1 K, 6000 kPa | 344.17
532.76 K, 3000 kPa | 193.81
533.4 K, 10000 kPa | 437.12
533.55 K, 4000 kPa | 252.16
533.57 K, 8000 kPa | 391.25
533.77 K, 6000 kPa | 331.99
534.12 K, 2500 kPa | 121.38
534.45 K, 5000 kPa | 293.97
537.58 K, 4000 kPa | 231.06
538.13 K, 2500 kPa | 101.28
538.36 K, 3000 kPa | 152.7
538.84 K, 8000 kPa | 376.34
539.09 K, 6000 kPa | 316.72
541.47 K, 4000 kPa | 208.26
542.55 K, 8000 kPa | 364.39
543.16 K, 10000 kPa | 413.25
543.5 K, 5000 kPa | 262.34
543.6 K, 6000 kPa | 300.59
544.09 K, 2500 kPa | 100.71
544.95 K, 3000 kPa | 115.6
547.02 K, 2500 kPa | 107.6
548.66 K, 8000 kPa | 346.4
548.98 K, 6000 kPa | 283.97
549.04 K, 3000 kPa | 105.27
549.16 K, 4000 kPa | 178.39
552.59 K, 2500 kPa | 118.66
553.05 K, 6000 kPa | 270.32
553.19 K, 8000 kPa | 335.76
553.2 K, 10000 kPa | 388.87
553.42 K, 5000 kPa | 225.17
553.43 K, 4000 kPa | 160.12
553.93 K, 3000 kPa | 110.64
557.81 K, 8000 kPa | 325.48
557.86 K, 6000 kPa | 255.8
559.74 K, 3000 kPa | 116.03
559.91 K, 2500 kPa | 129.19
560.41 K, 4000 kPa | 132.63
563.03 K, 10000 kPa | 363.89
563.09 K, 3000 kPa | 119.84
563.58 K, 8000 kPa | 312.82
563.84 K, 6000 kPa | 236.54
563.94 K, 4000 kPa | 124.51
564.02 K, 2500 kPa | 135.46
565.65 K, 5000 kPa | 187.87
572.57 K, 2500 kPa | 144.47
573.39 K, 10000 kPa | 345.21
574.33 K, 3000 kPa | 134.46
574.41 K, 8000 kPa | 287.41
574.85 K, 6000 kPa | 211.93
574.87 K, 5000 kPa | 160.49
575.28 K, 4000 kPa | 113.58
577.04 K, 5000 kPa | 154.18
579.18 K, 10000 kPa | 331.94
582.31 K, 5000 kPa | 142.67
582.39 K, 3000 kPa | 142.99
582.86 K, 10000 kPa | 325.02
583.1 K, 8000 kPa | 270.69
583.18 K, 6000 kPa | 191.45
584.19 K, 2500 kPa | 156.26
584.6 K, 4000 kPa | 122.55
587.85 K, 10000 kPa | 315.79
588.17 K, 5000 kPa | 139.88
590.48 K, 2500 kPa | 161.58
591.62 K, 4000 kPa | 127.84
591.77 K, 3000 kPa | 152.87
592.28 K, 5000 kPa | 136.41
592.57 K, 6000 kPa | 176.14
592.71 K, 10000 kPa | 307.49
593.19 K, 8000 kPa | 249.19
597.48 K, 5000 kPa | 135.43
601.6 K, 2500 kPa | 170.4
602.3 K, 5000 kPa | 135.26
602.84 K, 3000 kPa | 161.38
603.51 K, 10000 kPa | 291.2
603.68 K, 4000 kPa | 143.88
604.1 K, 6000 kPa | 161.83
604.67 K, 8000 kPa | 226
607.65 K, 5000 kPa | 136.72
612.08 K, 4000 kPa | 149.82
612.37 K, 3000 kPa | 167.57
612.58 K, 2500 kPa | 179.23
613.73 K, 6000 kPa | 158.49
613.93 K, 8000 kPa | 218.01
614.03 K, 10000 kPa | 272.94
615.11 K, 5000 kPa | 142.58
620.2 K, 8000 kPa | 211.6
620.87 K, 2500 kPa | 183.77
621.22 K, 4000 kPa | 157.32
622.48 K, 6000 kPa | 158.77
623.13 K, 10000 kPa | 260.67
623.25 K, 5000 kPa | 150.58
623.42 K, 3000 kPa | 174.58
631.85 K, 4000 kPa | 163.15
632.04 K, 3000 kPa | 179.96
632.18 K, 2500 kPa | 189.44
632.29 K, 5000 kPa | 156.55
632.41 K, 6000 kPa | 159.42
632.86 K, 8000 kPa | 201.03
640.72 K, 2500 kPa | 192.85
641.53 K, 3000 kPa | 186.21
641.95 K, 4000 kPa | 173.32
642.59 K, 8000 kPa | 195.65
643.04 K, 6000 kPa | 164.74
643.51 K, 5000 kPa | 165.41
650.07 K, 2500 kPa | 195.77
650.9 K, 3000 kPa | 189.41

From the NIST ThermoML archive (doi:10.1021/acs.jced.8b00212)
